Experimental data as given in patent US20050234073A1, “Methods of inhibiting inflammation” (priority 2003, published 2005).
Numbering of substitutions follows the chain as printed. One block for each molecule: values may come before it.

Assays:
C1Rd cells = assay: C1Rd cell CD1d-mediated activation of human peripheral blood derived iNKT cell line with PMA (IFN-gamma); type: cell-based; conditions: limiting concentration of PMA
Experimental: FIG. 20E is a line chart showing IFN-gamma production in C1Rd cells cultured with BMS197636 or vehicle and incubated with NKT cell lines derived from human peripheral blood in the presence of 1 ng/mL PMA.
APCs were incubated with 100 ng/mL α-galcer (kindly provided by Dr. H. Ploegh) for 3 hours, washed three times in PBS and aliquoted into a 96 well plate at 10^6 cells/mL. DN32 cells were added at 1:1 E:T ratio unless otherwise indicated. CD4^+ cells were isolated from spleens of OT-II transgenic mice using positive selection on CD4 magnetic beads (Miltenyi Biotec) and incubated with APCs and 100 μg/mL ovalbumin. The 24.8 NKT cell line was incubated with APCs in the absence of added antigen at E:T=2:1 unless otherwise indicated. Mouse IL-2 production was assessed by ELISA (OptEIA, BD PharMingen) of 24 or 40 hour culture supernatants. APCs were treated with BMS212122 (10 uM dissolved in DMSO; kindly provided by Bristol Myers Squibb, New Jersey) as indicated and washed prior to addition of T or NKT cells. […]
C1Rd is a human B cell line transfected with human CD1d. […] Incubation of C1Rd cells with BMS212122, but not the vehicle, inhibited the presentation of α-galcer as determined by a reduction in IL-2 secretion (FIG. 20D).

MTP = target: T1, MTP (Mus musculus, UniProt O08601); assay: Triglyceride transfer assay in splenocyte lysates; type: biochemical; conditions: splenocyte lysate with inhibitor added
T1 construct: Splenocyte lysates contained measurable triglyceride transfer activity; endogenous in cells; host or cells: primary mouse splenocytes (crude lysate)
T1 sequence (O08601 22-894): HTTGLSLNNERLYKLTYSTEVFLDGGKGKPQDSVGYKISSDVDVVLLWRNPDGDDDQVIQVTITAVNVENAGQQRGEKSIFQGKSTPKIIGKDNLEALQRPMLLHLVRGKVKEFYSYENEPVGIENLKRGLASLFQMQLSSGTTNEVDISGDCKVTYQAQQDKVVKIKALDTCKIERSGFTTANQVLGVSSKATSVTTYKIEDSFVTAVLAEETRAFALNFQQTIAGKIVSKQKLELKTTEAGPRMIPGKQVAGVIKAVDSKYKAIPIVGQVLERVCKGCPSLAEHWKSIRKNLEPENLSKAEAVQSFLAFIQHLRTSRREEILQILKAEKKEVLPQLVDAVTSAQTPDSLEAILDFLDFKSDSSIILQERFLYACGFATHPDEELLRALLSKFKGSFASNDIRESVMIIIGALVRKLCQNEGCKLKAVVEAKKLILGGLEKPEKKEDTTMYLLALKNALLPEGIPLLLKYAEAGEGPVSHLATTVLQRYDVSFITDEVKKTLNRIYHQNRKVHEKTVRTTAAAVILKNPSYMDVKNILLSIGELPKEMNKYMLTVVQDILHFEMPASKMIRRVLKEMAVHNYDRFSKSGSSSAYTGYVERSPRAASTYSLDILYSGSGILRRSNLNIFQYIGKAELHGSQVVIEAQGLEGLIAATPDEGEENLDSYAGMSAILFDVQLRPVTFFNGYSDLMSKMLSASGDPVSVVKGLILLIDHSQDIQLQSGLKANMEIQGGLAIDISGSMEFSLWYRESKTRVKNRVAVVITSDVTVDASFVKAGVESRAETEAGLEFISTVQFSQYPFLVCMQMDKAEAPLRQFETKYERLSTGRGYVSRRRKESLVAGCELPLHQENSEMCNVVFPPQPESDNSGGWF
T1 sequence (P09103 20-509 partner): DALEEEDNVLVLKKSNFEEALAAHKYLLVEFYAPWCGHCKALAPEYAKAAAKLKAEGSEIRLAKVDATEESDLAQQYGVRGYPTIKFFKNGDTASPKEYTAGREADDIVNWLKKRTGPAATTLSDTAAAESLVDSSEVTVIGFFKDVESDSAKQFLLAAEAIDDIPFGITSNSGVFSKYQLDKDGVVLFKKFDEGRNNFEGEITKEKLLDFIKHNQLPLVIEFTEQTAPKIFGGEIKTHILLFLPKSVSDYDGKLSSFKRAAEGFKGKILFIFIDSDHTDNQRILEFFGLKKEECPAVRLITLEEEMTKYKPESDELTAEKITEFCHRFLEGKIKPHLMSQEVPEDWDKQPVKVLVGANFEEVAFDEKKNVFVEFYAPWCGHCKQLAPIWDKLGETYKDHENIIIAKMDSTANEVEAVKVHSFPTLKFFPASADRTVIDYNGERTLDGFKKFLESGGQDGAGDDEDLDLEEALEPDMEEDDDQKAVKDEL
Experimental: FIG. 15C is a line graph showing triglyceride transfer activity in 100 ug splenocyte lysate (Δ), 50 μg splenocyte lysate (◯), 100 μg splenocyte lysate with BMS197636 (▴), and 50 μg splenocyte lysate with BMS197636 (●). Assays were in triplicate with standard deviations less than 10% of percent transfer at 3 hours.
(§1) The triglyceride transfer activity of MTP was measured using donor phospholipids vesicles (Chylos Inc.) as described. PE transfer was done by overnight coating of a microtiter plate with 2 ug per well recombinant murine CD1d purified by baculovirus expression system. Wells were washed with PBS, incubated with PBS containing 0.5% isopropanol for 2 hours at 37° C., and washed again with PBS. […] Fluorescence was read with a fluorescence plate reader (7620 Microplate Fluorimeter; Cambridge Technology, Watertown, Mass.) using 460 nm excitation and 530 nm emission wavelengths.
In this assay, MTP function is assessed by studying the transfer of fluorescently labeled triglycerides embedded in donor phospholipid vesicles to acceptor vesicles. During the transfer, the amount of triglyceride associated with MTP can be measured as an increase in fluorescence over time. […]

recombinant murine CD1d = target: T2, recombinant murine CD1d (Mus musculus, UniProt P11609); assay: PE transfer assay from MTP to recombinant CD1d; type: biochemical; conditions: 0.5 μg purified MTP, PE:NBD vesicles, 2 hours 37 degrees
T2 construct: made in house; host or cells: baculovirus expression system (CD1d); rat liver (MTP)
T2 sequence (P11609 22-305 limits assumed): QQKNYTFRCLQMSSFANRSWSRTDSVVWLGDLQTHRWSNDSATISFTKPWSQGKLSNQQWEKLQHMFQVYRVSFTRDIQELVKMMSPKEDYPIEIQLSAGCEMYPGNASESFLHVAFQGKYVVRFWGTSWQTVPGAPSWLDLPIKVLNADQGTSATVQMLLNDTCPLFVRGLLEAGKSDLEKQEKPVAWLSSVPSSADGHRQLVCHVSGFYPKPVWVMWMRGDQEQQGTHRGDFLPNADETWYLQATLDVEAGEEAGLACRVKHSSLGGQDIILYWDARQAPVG
T2 sequence (P01887 21-119 partner): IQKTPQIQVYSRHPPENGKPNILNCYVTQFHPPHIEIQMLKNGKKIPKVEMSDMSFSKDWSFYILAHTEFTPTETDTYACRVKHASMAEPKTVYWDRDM
Experimental: FIG. 16A is a bar chart showing purified MTP transfers a lipid to recombinant CD1d in vitro. Two micrograms of BSA or recombinant CD1d were coated onto microtiter wells and incubated with either PE:NBD vesicles alone or PE:NBD vesicles plus 0.5 μg purified MTP. Results are representative of five independent experiments. *, p<0.005
as §1, with “system.” for “system. Wells were washed with PBS, incubated with PBS containing 0.5% isopropanol for 2 hours at 37° C., and washed again with PBS.”
Recombinant β2m associated CD1d was coated onto a 96 well plate and incubated with liposomes containing a 6:1 ratio of unlabeled PE:NBD-labeled PE. […] Lipids bound to CD1d were eluted with isopropanol, transferred to a black microtiter plate, and the level of fluorescence determined. […] Assuming equal efficiency of MTP-mediated transfer of labeled versus unlabeled PE to the CD1d pocket and that all CD1d molecules bound to the plastic in an orientation with the groove solvent accessible, we calculated that the maximum limit of NBD-labeled PE that could be transferred to CD1d was 4.7 picomoles in this assay. […]

Molecule: 9-[4-[[[4′-(trifluoromethyl)[1,1′-biphenyl]-2-yl]carbonyl]amino]butyl-piperidin-4-yl]-N-(2,2,2-trifluoroethyl)-9H-fluorene-9-carboxamide [BMS197636]
- CD1d-mediated activation of human peripheral blood derived iNKT cell line (C1Rd cells): dose-dependent inhibition
- triglyceride transfer activity of splenocyte lysates (MTP): abrogated

- increase in fluorescence above background (PE transferred to CD1d) (recombinant murine CD1d): 5 fold
B1: MTP: microsomal triglyceride transfer protein purified from rat liver (>95% pure by SDS-PAGE) (protein)
chain 1: T1 sequence (O08601 22-894) with G633K, K634G, A635T, V779L, E851Q
chain 2: T1 sequence (P09103 20-509 partner)
